According to PubChem BioAssay (NCI):
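Exposure lasted 48 hours, with cells grown in 96-well plates and compounds tested at five concentrations. GI50: concentration for 50% inhibition of growth. At the TGI there is no net growth.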

What was measured:
Experiment in all cases: inhibition of tumour cell growth, NCI panel, 48 h
[1] = test system: OVCAR-3 ovarian
[2] = test system: DMS 273 small cell lung
[3] = test system: SR leukemia
[4] = test system: LOX IMVI melanoma
[5] = test system: DMS 114 small cell lung
[6] = test system: U251 CNS
[7] = test system: HCT-15 colon
[8] = test system: TK-10 renal
[9] = test system: DU-145 prostate
[10] = test system: T-47D breast

Row | SMILES | TGI [1] [µM] | TGI [2] [µM] | TGI [3] [µM] | TGI [4] [µM] | TGI [5] [µM] | TGI [6] [µM] | TGI [7] [µM] | TGI [8] [µM] | TGI [9] [µM] | TGI [10] [µM] | GI50 [8] [nM] | GI50 [3] [nM] | GI50 [5] [nM] | GI50 [9] [nM] | GI50 [4] [nM] | GI50 [7] [nM]
1 | CC1(CO)OC1COCc1ccccc1 (stereo not drawn) | > 100 | > 100 | > 100 | > 100 | > 100 | > 100 | > 100 |  |  |  |  |  |  |  |  | 
2 | O=C(O)c1c2c(c(C(=O)O)c3ccccc13)-c1ccccc1-2 | 84 | > 100 | > 100 | > 100 | > 100 | > 100 |  | > 100 |  |  |  |  |  |  |  | 
3 | Cc1cccc(C)c1NC(=O)/C(Cl)=C(/Cl)C(=O)O | 41.8 | 35.9 | > 57.1 | 34.3 | 43.2 | 47.5 | 34.8 | 21.6 | 64.8 | 66.2 |  |  |  |  |  | 
4 | COc1cc2c(c(OC)c1OC)-c1ccc(SC)c(=O)cc1[C@@H](NC(=O)c1ccc(OC(C)=O)cc1)CC2 | 0.034 | > 100 | 23.9 | 0.0539 | 0.0336 | 0.0544 |  | 33.4 |  |  | 11.3 | 7.73 | 14.4 |  |  | 
5 | COc1ccc(C2S/C(=C\c3cc(OC)c(OC)c(OC)c3)C(=O)N2NC(=O)Cc2ccccc2)cc1 (stereo not drawn) |  | > 100 | > 100 | > 100 | > 100 | > 100 | > 100 | > 100 |  |  |  |  |  |  |  | 
6 | COC1/C=C\C=C(/C)C(=O)Nc2cc3nc4ccc(Br)cc4oc-3c(c2=O)CC(C)CC(OC)C(O)C(C)/C=C(\C)C1OC(N)=O (stereo not drawn) | 3.84 | 4.19 | 0.634 | 0.959 | 5.34 | 28.7 | 6.99 | 17.6 | 18 |  | 6.81 | 2.72 |  | 4.03 | 2.71 | 5.83
7 | O=C(CNC(=O)OCc1ccccc1)Oc1ccccc1 | > 100 | > 100 | > 100 | > 100 | > 100 | > 100 | > 100 | > 100 |  |  |  |  |  |  |  | 
